In patent US11401278B2, “Macrocyclic indole derivatives” (The Broad Institute, Inc., priority 2017, dated 2022):
Counter-ions that a name gives are not always drawn.

Experiments:
MCL1 protein = MCL1 protein (Homo sapiens (Human), UniProt Q07820); assay: PIxEL: protein-protein interaction in permeabilized cells by ELISA (Assay 5); type: cell-based; settings: permeabilized RKO cells, Biotin-BIM peptide 0.2 μM, serum free; median
Method: PI×EL: Protein-Protein Interaction in Permeabilized Cells by ELISA
Most MCL1 protein molecules are localized at the mitochondria outer membrane and sequester pro-apoptotic proteins through binding of their BCL2 homology domain 3 (BH3 domain). MEB buffer (150 mM mannitol, 10 mM HEPES pH 7.5, 50 mM KCl, 20 μM EDTA, 20 μM EGTA, 5 mM potassium succinate, 0.1% protease-free BSA (SIGMA) with low dose digitonin (0.002%) permeabilizes plasma membrane while leaves live mitochondria, where MCL1 maintains its native localization and conformation. Unlike biophysical assays (e.g. TR-FRET) that use truncated recombinant MCL1 protein, this assay uses full length endogenous MCL1 protein at mitochondria outer membrane. It measures the interaction between MCL1 protein and biotinylated BIM BH3 peptide. Compounds can compete with BIM BH3 peptide to bind to MCL1 protein. This serum free assay measures the affinity between MCL1 protein and compound in permeabilized cells, therefore it is not affected by serum binding and cell permeability, and can measure the intrinsic compound affinity.
On day 1, RKO colon cancer cell line cells were plated at 0.8 million cells/ml, 100 μl/well in 96-well flat bottom TC plates (Corning). MCL1 antibody (Santa Cruz sc-12756) were diluted at 200 fold (final concentration 1 μg/ml) in carbonate buffer (Thermo Fisher Scientific, pH 9.6), and 50 μl of diluted antibody was added to each well of high bind ELISA plates (SARSTEDT). Each plate was tapped to make sure liquid covering entire bottom of wells and incubate at 37° C. overnight.
On the second day, MCL1 antibody was washed from ELISA plate. 250 μl Odyssey® Blocking Buffer (PBS) (Li-Cor) was added to each well, incubated at room temperature for at least 1 hour, then washed once with 250 μl 1×PBST. Plates with RKO cells were gently washed once with 100 μl/well PBS, once with 100 μl/well MEB buffer without digitonin, then 100 μl of MEB buffer with 0.002% digitonin was gently added to each well. Compounds were added with HP Tecan compound dispenser in 3-fold dilution series, highest dose 30 μM, 10-dose per compound in quadruplicates. Biotin-BIM peptide (synthesized by 21st Century) was added with HP Tecan compound dispenser at 0.2 μM immediately after the addition of compounds. Plates were rocked for 1 hour at room temperature. Then MEB buffer was aspirated and 50 μl of CHAPS buffer (50 mM Tris-Cl, pH 7.4, 150 mM NaCl, 1% CHAPS, 1 mM EDTA, 1 mM EGTA, cOmplete protease inhibitors (Roche), PhosSTOP (Roche)) was added to each well. Plates were rocked for 1 hour at 4° C., then 45 μl cell lysate from each well were transferred to ELISA plates coated with MCL1 antibody. Plates were incubated overnight in the cold room with rocking.
On the third day, ELISA plates were washed once with 250 μl 1×PBST. Streptavidin-poly-HRP (Thermo Fisher Scientific) was diluted to 20 ng/ml in Odyssey blocking buffer plus 0.05% Triton-100, and 100 μl was added to each well of the ELISA plate. Plates were incubated at room temperature for 1 hour with rocking, then washed with 100 μL 1×PBST for 3 times. Each SuperSignal ELISA Femto Maximum Sensitivity substrate was added to a 50-ml tube and mixed, then 100 μl of mixed substrate was added to each well. Plates were shaken for 1 minute then luminescence was measured by Envision plate reader […]. Signal of each well were normalized by no-compound control and no-cell control. IC50 was calculated using Graphic Pad PRISM software.

MCL-1 = MCL-1 (Homo sapiens (Human), UniProt Q07820, K194A/K197A/R201A); assay: Protein-compound interaction assay (SPR assay, Assay 8); type: binding; settings: immobilized MBP-MCL-1, 25° C., geometric mean
Text: Assay 8 Protein-Compound Interaction Assay (SPR Assay)
The ability of the compounds described in this invention to bind to MCL-1 may be determined using surface plasmon resonance (SPR). This allows for the quantification of binding in terms of the equilibrium dissociation constant (KD [M]), as well as association and dissociation rate constants (kon [1/M 1/s] and koff [1/s], respectively). The measurements may be performed using Biacore® T200 or Biacore® S200 instruments (GE Healthcare).
For SPR measurements, recombinant MCL-1 (amino acids 173-321, N-terminal fused to Maltose Binding Protein (MBP) (SEQ ID 1) purchased from Beryllium (Bedford, Mass., USA)) was immobilized using standard amine coupling (Johnsson B et al, Anal Biochem. 1991 Nov. 1; 198(2):268-77). Briefly, carboxymethylated dextran biosensor chips (Series S Sensor Chip CMS, GE Healthcare) were activated with 1-ethyl-3-(3-dimethylaminopropyl)-carbodiimide hydrochloride (EDC) and N-hydroxysuccinimide (NHS) according to the supplier's instructions. MBP-MCL-1 was diluted in 1×PBS-P+ (GE Healthcare) and injected on the activated chip surface. Subsequently, a solution of 1 M ethanolamine-HCl (GE Healthcare) was injected to block unreacted groups, resulting in approximately 400-2500 response units (RU) of immobilized protein. A reference surface was generated by treatment with NHS-EDC and ethanolamine-HCl. Compounds were dissolved in 100% dimethylsulfoxide (DMSO) to a concentration of 10 mM and subsequently diluted in running buffer (1×PBS-P+ (GE Healthcare) [generated from PBS-P+ Buffer 10× (GE Healthcare): 0.2 M phosphate buffer with 27 mM KCl, 1.37 M NaCl and 0.5% Surfactant P20 (Tween 20).], 1% v/v DMSO). For SPR binding-measurements, serial dilutions of compound (eight dilution steps, typically ranging from 0.2 nM up to 1 μM) were injected over immobilized protein. […] Compounds were injected for 60 s followed by a dissociation time of up to 1000 s.
The double-referenced sensorgrams were fit to a simple reversible Langmuir 1:1 reaction mechanism as implemented in the Biacore® T200 and S200 evaluation software (T200 evaluation software version 2.0 and S200 evaluation software version 1.0, GE Healthcare).

Chain of MCL1 protein (Q07820 whole entry): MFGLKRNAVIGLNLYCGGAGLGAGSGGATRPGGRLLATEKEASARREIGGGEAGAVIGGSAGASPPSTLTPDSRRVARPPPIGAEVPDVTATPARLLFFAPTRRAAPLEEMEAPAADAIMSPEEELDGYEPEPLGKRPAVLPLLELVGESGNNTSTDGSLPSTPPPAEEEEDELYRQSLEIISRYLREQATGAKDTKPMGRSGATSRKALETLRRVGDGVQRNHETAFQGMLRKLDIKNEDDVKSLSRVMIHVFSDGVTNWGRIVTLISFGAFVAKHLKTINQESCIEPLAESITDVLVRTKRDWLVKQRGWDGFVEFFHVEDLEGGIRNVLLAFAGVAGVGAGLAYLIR
Chain of MCL-1 (Q07820 whole entry K194A/K197A/R201A, looked up): as the sequence (Q07820 whole entry) above, with K194A, K197A, R201A counted along it

Row | Structure (SMILES) | IC50 (MCL1 protein) [nM] | other results
1 | CCc1c2c(nn1C)CN(C1CC1)S(=O)(=O)CCCn1c(C(=O)O)c(CCCOc3cccc4cc(F)ccc34)c3ccc(Cl)c-2c31 (racemic) [Example 53, (rac)-4-chloro-14-cyclopropyl-3-ethyl-7-{3-[(6-fluoro-1-naphthyl)oxy]propyl}-2-methyl-11,12,14,15-tetrahydro-2H,10H-pyrazolo[3′,4′:4,5][1,2,8]thiadiazacycloundecino[6,7,8-hi]indole-8-carboxylic acid 13,13-dioxide] | 329 | 
2 | CCc1c2c(nn1C)C(CCN1CCOCC1)N(C)S(=O)(=O)CCCn1c(C(=O)O)c(CCCOc3cccc4cc(F)ccc34)c3ccc(Cl)c-2c31 (racemic) [Example 73, (rac)-(4-chloro-3-ethyl-7-{3-[(6-fluoronaphthalen-1-yl)oxy]propyl}-2,14-dimethyl-15-[2-(morpholin-4-yl)ethyl]-13,13-dioxo-10,11,12,13,14,15-hexahydro-2H-13lambda^6-pyrazolo[3′,4′:4,5][1,2,8]thiadiazacycloundecino[6,7,8-hi]indole-8-carboxylic acid (Racemate 1)] | 33.1 | 
3 | CCc1c2c(nn1C)CN(C1CC1)S(=O)(=O)CCCn1c(C(=O)O)c(CCCOc3cccc4cc(F)ccc34)c3ccc(Cl)c-2c31 (single isomer, unassigned; enantiomer 1) [Example 54, (−)-4-chloro-14-cyclopropyl-3-ethyl-7-{3-[(6-fluoronaphthalen-1-yl)oxy]propyl}-2-methyl-13,13-dioxo-10,11,12,13,14,15-hexahydro-2H-13lambda^6-pyrazolo[3′,4′:4,5][1,2,8]thiadiazacycloundecino[6,7,8-hi]indole-8-carboxylic acid N-ethylethanamine Salt (Enantiomer 1)] | 360 | 
4 | CCc1c2c(nn1C)CN(CC)S(=O)(=O)CCCn1c(C(=O)O)c(CCCOc3cccc4cc(F)ccc34)c3ccc(Cl)c-2c31 (single isomer, unassigned; enantiomer 1) [Example 57, (+)-4-chloro-3,14-diethyl-7-{3-[(6-fluoronaphthalen-1-yl)oxy]propyl}-2-methyl-13,13-dioxo-10,11,12,13,14,15-hexahydro-2H-13lambda^6-pyrazolo[3′,4′:4,5][1,2,8]thiadiazacycloundecino[6,7,8-hi]indole-8-carboxylic acid N-ethylethanamine Salt (Enantiomer 1)] | 74.8 | 
5 | CCNCC.CCc1c2c(nn1C)C(CCN1CCOCC1)N(C)S(=O)(=O)CCCn1c(C(=O)O)c(CCCOc3cccc4cc(F)ccc34)c3ccc(Cl)c-2c31 (single isomer, unassigned; enantiomer 2) [Example 76, 4-chloro-3-ethyl-7-{3-[(6-fluoronaphthalen-1-yl)oxy]propyl}-2,14-dimethyl-15-[2-(morpholin-4-yl)ethyl]-13,13-dioxo-10,11,12,13,14,15-hexahydro-2H-13lambda^6-pyrazolo[3′,4′:4,5][1,2,8]thiadiazacycloundecino[6,7,8-hi]indole-8-carboxylic acid-N-ethylethanamine Salt (Enantiomer 2)] |  | Kd (MCL-1): 0.34 nM; koff (MCL-1): 0.0025 s⁻¹; kon (MCL-1): 7.3e+06 M⁻¹ s⁻¹

Continued by falling IC50 (MCL1 protein), values first:

Row | IC50 (MCL1 protein) [nM] | Structure (SMILES) | other results
6 | 458 | Cc1c2c(nn1C)CNS(=O)(=O)CCCn1c(C(=O)O)c(CCCOc3cccc4cc(F)ccc34)c3ccc(Cl)c-2c31 (single isomer, unassigned; enantiomer 1) [Example 51, 4-chloro-7-{3-[(6-fluoronaphthalen-1-yl)oxy]propyl}-2,3-dimethyl-13,13-dioxo-10,11,12,13,14,15-hexahydro-2H-13lambda^6-pyrazolo[3′,4′:4,5][1,2,8]thiadiazacycloundecino[6,7,8-hi]indole-8-carboxylic acid (Enantiomer 1)] | 
7 | 145 | CCc1c2c(nn1C)CN(CC)S(=O)(=O)CCCn1c(C(=O)O)c(CCCOc3cccc4cc(F)ccc34)c3ccc(Cl)c-2c31 (racemic) [Example 56, (rac)-4-chloro-3,14-diethyl-7-{3-[(6-fluoro-1-naphthyl)oxy]propyl}-2-methyl-11,12,14,15-tetrahydro-2H,10H-pyrazolo[3′,4′:4,5][1,2,8]thiadiazacycloundecino[6,7,8-hi]indole-8-carboxylic acid 13,13-dioxide] | 
8 | 29.9 | Cc1c2c(nn1C)C(CCN1CCOCC1)N(C)S(=O)(=O)CCCn1c(C(=O)O)c(CCCOc3cccc4cc(F)ccc34)c3ccc(Cl)c-2c31 (racemic) [Example 48, (rac)-4-chloro-7-{3-[(6-fluoro-1-naphthyl)oxy]propyl}-2,3,14-trimethyl-15-(rac)-[2-(morpholin-4-yl)ethyl]-11,12,14,15-tetrahydro-2H,10H-pyrazolo[3′,4′:4,5][1,2,8]thiadiazacycloundecino[6,7,8-hi]indole-8-carboxylic acid 13,13-dioxide (Mixture of Stereoisomers)] | 
9 | 22 | CCc1c2c(nn1C)C(CCC1CCOCC1)N(C)S(=O)(=O)CCCn1c(C(=O)O)c(CCCOc3cccc4cc(F)ccc34)c3ccc(Cl)c-2c31 (single isomer, unassigned; enantiomer 3) [Example 63, (+)-4-chloro-3-ethyl-7-{3-[(6-fluoronaphthalen-1-yl)oxy]propyl}-2,14-dimethyl-15-[2-(oxan-4-yl)ethyl]-13,13-dioxo-10,11,12,13,14,15-hexahydro-2H-13lambda^6-pyrazolo[3′,4′:4,5][1,2,8]thiadiazacycloundecino[6,7,8-hi]indole-8-carboxylic acid (Enantiomer 3)] | 
10 | 8.74 | Cc1c2c(nn1C)C(CCN1CCOCC1)N(C)S(=O)(=O)CCCn1c(C(=O)O)c(CCCOc3cccc4cc(F)ccc34)c3ccc(Cl)c-2c31 (single isomer, unassigned; enantiomer 2) [Example 67, 4-chloro-7-{3-[(6-fluoronaphthalen-1-yl)oxy]propyl}-2,3,14-trimethyl-15-[2-(morpholin-4-yl)ethyl]-13,13-dioxo-10,11,12,13,14,15-hexahydro-2H-13lambda^6-pyrazolo[3′,4′:4,5][1,2,8]thiadiazacycloundecino[6,7,8-hi]indole-8-carboxylic acid (Enantiomer 2)] | 
